Data: patent publication US20240368149A1, “ANALOGS OF XANOMELINE” (Terran Biosciences Inc., priority 2023, published 2024)
Read-outs that look alike come from different tables or passages of the source.

How the values were obtained:
[1] = Rat PK: plasma prodrug concentration after intramuscular (IM) dosing of xanomeline prodrugs at 5 mg/kg (Example A-4); format: in vivo, male Sprague-Dawley (SD) rats; details: male, Sprague-Dawley, IM 5 mg/kg of xanomeline; for Cmax / AUC(0-inf) / AUC(0-t): im; for AUC(0-inf): read-out: Prodrug AUCINF_obs; for AUC(0-t): read-out: Prodrug AUClast; for concentration at 0.5 h: 0.500 h
Procedure: (§1) • Step 1: A stock solution of the compound(s) were prepared to 1 mg/ml in DMSO • Step 2: A 10,000 ng/mL matched matrix standard was prepared using the stock solution(s) • Step 3: Calibration standards in matched matrix were prepared between 10,000 ng/ml and 0.5 ng/mL using serial dilution • Step 4: QC samples were prepared in matched matrix at 4000, 800, 400, 40 and 10 ng/mL
(§2) • Step 1: Add 10 μL of the standards, QCs and samples to a 96-well plate (extraction plate) • Step 2: To each standard, QC and test sample, add 100 μL of ISZ • Step 3: Sonicate for 2 min then mix the plate for approximately 2 min at 1200 rpm on a plate shaker • Step 4: Centrifuge the plate at 3000 rpm for 5 min • Step 5: Add 50 μL 0.1% formic acid in UP H2O to wells of a new 96-well plate • Step 6: Transfer 50 μL extracted sample to relevant position in second 96-well plate • Step 7: Mix at 1200 rpm for 2 min • Step 8: Heat seal and analyse on the LC-MS/MS system • Instrument: Xevo TQ-D with CTC Autosampler
(§3) Samples were sent for method optimization and measurement of prodrug via unique calibration lines and following acceptance QC's. Dose formulation concentrations were also measured, and PK parameters were determined (Cmax (ng/mL), Tmax (hr), Cl (ml/min/kg), Vdss (L/kg), t½ (hr), AUC0-t (ng/mL*hr), AUC0-inf (ng/mL*hr), MRT (hr), Bioavailability (% F) where warranted) using WinNon Lin software. Data (including bioanalytical results and assay performance) were reported in a tabulated format and QC'd.
Formulation for IM administration: All compounds were formulated as solutions or fine suspensions in saline at 12.5 mg API/mL. This provided doses of 5 mg/kg (equivalent of xanomeline) when given to a 250 g rat in a 100 μL dosing volume.
The pharmacokinetic properties of the synthesized xanomeline prodrugs after intramuscular administration in a rat model were assessed. The concentration of prodrug was measured in each rat at various sampling timepoints after intramuscular administration of the synthesized xanomeline prodrugs to rats.
Dose formulations were made at equivalent concentrations of active compound (xanomeline) adjusted for molecular weight of the compounds. The synthesized xanomeline prodrugs were dosed at 5 mg/kg intramuscular (IM) nominal dose. Nominal doses were used in PK parameter determinations.

[2] = Rat PK: plasma prodrug concentration after intravenous (IV) dosing of xanomeline prodrugs at 1 mg/kg (Example A-6); format: in vivo, male Sprague-Dawley (SD) rats; details: male, Sprague-Dawley, IV 1 mg/kg of xanomeline; for concentration at 0.25 h / concentration at 0.5 h / concentration at 0.75 h / Cmax / AUC(0-inf) / AUC(0-t): iv, 1 mg/kg; for concentration at 0.25 h: 0.250 h; for concentration at 0.25 h / concentration at 0.5 h / concentration at 0.75 h: read-out: Prodrug Plasma Concentrations Following Intravenous Dosing; for concentration at 0.5 h: 0.500 h; for concentration at 0.75 h: 0.750 h; for AUC(0-inf): read-out: Prodrug AUCINF_obs; for AUC(0-t): read-out: Prodrug AUClast
Procedure: as §1, §2, §3
Compound was dissolved in DMSO:HPCD (20% w/v in water) [10:90] 0.5 mg API/mL to provide doses of 1 mg/kg when administered IV in a 2 mL/kg dosing volume.
The pharmacokinetic properties of the synthesized xanomeline prodrugs after intravenous administration in a rat model were assessed. The concentration of prodrug was measured in each rat at various sampling timepoints after intravenous administration of the synthesized xanomeline prodrugs to rats.
Dose formulations were made at equivalent concentrations of active compound (xanomeline) adjusted for molecular weight of the compounds. The synthesized xanomeline prodrugs were dosed at 1 mg/kg intravenous (IV) nominal dose. Nominal doses were used in PK parameter determinations.

[3] = 5 mg/kg, analyte prodrug, individual animals
[4] = intramuscular, 5 mg/kg, Mean, read-out: Prodrug Plasma Concentrations Following Intramuscular Dosing
[5] = intramuscular, 5 mg/kg, individual animals, read-out: Prodrug Plasma Concentrations Following Intramuscular Dosing
[6] = analyte prodrug, individual animals

- Tmax ([1]; analyte prodrug, Mean): 30 min
- Cmax ([1]; 5 mg/kg, analyte prodrug, Mean): 218 ng/mL
- AUC(0-inf) ([1]; 5 mg/kg, analyte prodrug, Mean): 697 ng·h/mL
- AUC(0-t) ([1]; 5 mg/kg, analyte prodrug, Mean): 618 ng·h/mL
- Cmax [1, 3]: 284 ng/mL
- AUC(0-inf) [1, 3]: 891 ng·h/mL
- AUC(0-t) [1, 3]: 667 ng·h/mL
- concentration at 0.5 h [1, 4]: 218 ng/mL
- concentration at 0.5 h [1, 5]: 284 ng/mL
- concentration at 1 h [1, 4]: 128 ng/mL
- concentration at 1 h [1, 5]: 115 ng/mL
- concentration at 2 h [1, 4]: 83 ng/mL
- concentration at 2 h [1, 5]: 80.2 ng/mL
- concentration at 4 h [1, 4]: 35.9 ng/mL
- concentration at 4 h [1, 5]: 38.6 ng/mL
- concentration at 8 h ([1]; intramuscular, 5 mg/kg, 8.00 h, Mean, read-out: Prodrug Plasma Concentrations Following Intramuscular Dosing): 13.7 ng/mL
- concentration at 24 h ([1]; intramuscular, 5 mg/kg, 24.0 h, Mean, read-out: Prodrug Plasma Concentrations Following Intramuscular Dosing): 1.59 ng/mL
- concentration at 31 h [1, 4]: 1.04 ng/mL
- concentration at 31 h [1, 5]: 1.01 ng/mL
- concentration at 48 h [1, 4]: 0.666 ng/mL
- concentration at 48 h [1, 5]: 0.775 ng/mL
- concentration at 96 h [1, 4]: 0.255 ng/mL
- concentration at 96 h [1, 5]: 0.764 ng/mL
- Tmax [2, 6]: 15 min
- concentration at 0.25 h ([2]; Mean): 27.2 ng/mL
- concentration at 0.25 h ([2]; individual animals): 35.4 ng/mL
- concentration at 0.5 h ([2]; Mean): 11.8 ng/mL
- concentration at 0.5 h ([2]; individual animals): 15.2 ng/mL
- concentration at 0.75 h ([2]; Mean): 7.1 ng/mL
- concentration at 0.75 h ([2]; individual animals): 8.62 ng/mL
- Cmax ([2]; analyte prodrug, Mean): 27.2 ng/mL
- AUC(0-inf) ([2]; analyte prodrug, Mean): 22.9 ng·h/mL
- AUC(0-t) ([2]; analyte prodrug, Mean): 17.8 ng·h/mL
- Cmax [2, 6]: 35.4 ng/mL
- AUC(0-inf) [2, 6]: 27.1 ng·h/mL
- AUC(0-t) [2, 6]: 24 ng·h/mL
SMILES: CCCCCCOc1nsnc1C1=CCC[N+](C)(C(C)OC(=O)C(C)(C)C)C1 (stereo not drawn) [Compound 19]
